test system: Candida tropicalis; test: Antifungal activity against Candida tropicalis; assay type: functional, organism-based; details: not given; call rule not given here

| Structure (SMILES) | IC50 |
| --- | --- |
| CCCC#C/C=C\C#CCCCCCC(O)C(=O)O (stereo not drawn) | Not Active |
| O=C(O)C(O)CCCCCCC#C/C=C\C#Cc1ccco1 (stereo not drawn) | Not Active |
| CCCC#CC#CC#CCCCCC[C@@H]1O[C@](C)(OC)[C@@](C)(OC)OC1=O | Not Active |
| CCCCCC#C/C=C\C#CC[C@@H]1O[C@](C)(OC)[C@@](C)(OC)OC1=O | Not Active |
| CCCCCC/C=C\C#CC#CCCCCC(O)C(=O)OC (stereo not drawn) | Not Active |
| CCCCC/C=C\C#CC#CCCCCC[C@@H]1O[C@](C)(OC)[C@@](C)(OC)OC1=O | Not Active |
| CCCCCC#C/C=C\C#CCCCCCC(O)C(=O)O (stereo not drawn) | Not Active |
| CCCC#C/C=C\C#CCCCCCC(O)C(=O)OCCCc1ccccc1 (stereo not drawn) | Not Active |
| CCCCC#CC#C/C=C/CCCCCCC(O)C(=O)NCc1ccccc1 (stereo not drawn) | Not Active |
| CCCCC#CC#C/C=C/CCCCCC[C@@H]1O[C@](C)(OC)[C@@](C)(OC)OC1=O | Not Active |

test system: Pseudomonas aeruginosa; test: Antibacterial activity against Pseudomonas aeruginosa ATCC 27853; assay type: functional; details: not given; note: test concentration or dose not given here

| Structure (SMILES) | inhibition (INH) [%] |
| --- | --- |
| CCCC#C/C=C\C#CCCCCCC(O)C(=O)O (stereo not drawn) | >75 |
| O=C(O)C(O)CCCCCCC#C/C=C\C#Cc1ccco1 (stereo not drawn) | >75 |
| CCCC#CC#CC#CCCCCC[C@@H]1O[C@](C)(OC)[C@@](C)(OC)OC1=O | >75 |
| CCCCCC#C/C=C\C#CC[C@@H]1O[C@](C)(OC)[C@@](C)(OC)OC1=O | >75 |
| CCCCCC/C=C\C#CC#CCCCCC(O)C(=O)OC (stereo not drawn) | >75 |
| CCCCC/C=C\C#CC#CCCCCC[C@@H]1O[C@](C)(OC)[C@@](C)(OC)OC1=O | >75 |
| CCCCCC#C/C=C\C#CCCCCCC(O)C(=O)O (stereo not drawn) | >75 |
| CCCC#C/C=C\C#CCCCCCC(O)C(=O)OCCCc1ccccc1 (stereo not drawn) | >75 |
| CCCCC#CC#C/C=C/CCCCCCC(O)C(=O)NCc1ccccc1 (stereo not drawn) | >75 |
| CCCCC#CC#C/C=C/CCCCCC[C@@H]1O[C@](C)(OC)[C@@](C)(OC)OC1=O | >75 |

test system: Escherichia coli; test: Antibacterial activity against Escherichia coli ATCC 25922; assay type: functional; details: not given; note: test concentration or dose not given here

| Structure (SMILES) | inhibition (INH) [%] |
| --- | --- |
| CCCC#C/C=C\C#CCCCCCC(O)C(=O)O (stereo not drawn) | 50 |
| O=C(O)C(O)CCCCCCC#C/C=C\C#Cc1ccco1 (stereo not drawn) | >75 |
| CCCC#CC#CC#CCCCCC[C@@H]1O[C@](C)(OC)[C@@](C)(OC)OC1=O | >75 |
| CCCCCC#C/C=C\C#CC[C@@H]1O[C@](C)(OC)[C@@](C)(OC)OC1=O | 50 |
| CCCCCC/C=C\C#CC#CCCCCC(O)C(=O)OC (stereo not drawn) | 25 |
| CCCCC/C=C\C#CC#CCCCCC[C@@H]1O[C@](C)(OC)[C@@](C)(OC)OC1=O | 50 |
| CCCCCC#C/C=C\C#CCCCCCC(O)C(=O)O (stereo not drawn) | 50 |
| CCCC#C/C=C\C#CCCCCCC(O)C(=O)OCCCc1ccccc1 (stereo not drawn) | 50 |
| CCCCC#CC#C/C=C/CCCCCCC(O)C(=O)NCc1ccccc1 (stereo not drawn) | 50 |
| CCCCC#CC#C/C=C/CCCCCC[C@@H]1O[C@](C)(OC)[C@@](C)(OC)OC1=O | 50 |

test system: Nakaseomyces glabratus; test: Antifungal activity against Candida glabrata; assay type: functional, organism-based; details: not given

| Structure (SMILES) | IC50 |
| --- | --- |
| CCCC#C/C=C\C#CCCCCCC(O)C(=O)O (stereo not drawn) | Not Active |
| O=C(O)C(O)CCCCCCC#C/C=C\C#Cc1ccco1 (stereo not drawn) | Not Active |
| CCCC#CC#CC#CCCCCC[C@@H]1O[C@](C)(OC)[C@@](C)(OC)OC1=O | Not Active |
| CCCCCC#C/C=C\C#CC[C@@H]1O[C@](C)(OC)[C@@](C)(OC)OC1=O | Not Active |
| CCCCC/C=C\C#CC#CCCCCC[C@@H]1O[C@](C)(OC)[C@@](C)(OC)OC1=O | Not Active |
| CCCCCC#C/C=C\C#CCCCCCC(O)C(=O)O (stereo not drawn) | Not Active |
| CCCC#C/C=C\C#CCCCCCC(O)C(=O)OCCCc1ccccc1 (stereo not drawn) | Not Active |
| CCCCC#CC#C/C=C/CCCCCCC(O)C(=O)NCc1ccccc1 (stereo not drawn) | Not Active |
| CCCCC#CC#C/C=C/CCCCCC[C@@H]1O[C@](C)(OC)[C@@](C)(OC)OC1=O | Not Active |

same assay, conditions: Nakaseomyces glabratus; read-out: IC50

| Structure (SMILES) | IC50 [µM] |
| --- | --- |
| CCCCCC/C=C\C#CC#CCCCCC(O)C(=O)OC (stereo not drawn) | 1000 |

test system: Candida albicans; test: Antifungal activity against Candida albicans; assay type: functional, organism-based; details: not given

| Structure (SMILES) | IC50 |
| --- | --- |
| CCCC#C/C=C\C#CCCCCCC(O)C(=O)O (stereo not drawn) | Not Active |
| O=C(O)C(O)CCCCCCC#C/C=C\C#Cc1ccco1 (stereo not drawn) | Not Active |
| CCCC#CC#CC#CCCCCC[C@@H]1O[C@](C)(OC)[C@@](C)(OC)OC1=O | Not Active |
| CCCCCC#C/C=C\C#CC[C@@H]1O[C@](C)(OC)[C@@](C)(OC)OC1=O | Not Active |
| CCCCCC/C=C\C#CC#CCCCCC(O)C(=O)OC (stereo not drawn) | Not Active |
| CCCCC/C=C\C#CC#CCCCCC[C@@H]1O[C@](C)(OC)[C@@](C)(OC)OC1=O | Not Active |
| CCCCCC#C/C=C\C#CCCCCCC(O)C(=O)O (stereo not drawn) | Not Active |
| CCCC#C/C=C\C#CCCCCCC(O)C(=O)OCCCc1ccccc1 (stereo not drawn) | Not Active |
| CCCCC#CC#C/C=C/CCCCCCC(O)C(=O)NCc1ccccc1 (stereo not drawn) | Not Active |
| CCCCC#CC#C/C=C/CCCCCC[C@@H]1O[C@](C)(OC)[C@@](C)(OC)OC1=O | Not Active |

test system: Staphylococcus aureus; test: Antibacterial activity against Staphylococcus aureus ATCC 25923; assay type: functional; details: not given; note: test concentration or dose not given here

| Structure (SMILES) | inhibition (INH) [%] |
| --- | --- |
| CCCC#C/C=C\C#CCCCCCC(O)C(=O)O (stereo not drawn) | >75 |
| O=C(O)C(O)CCCCCCC#C/C=C\C#Cc1ccco1 (stereo not drawn) | >75 |
| CCCC#CC#CC#CCCCCC[C@@H]1O[C@](C)(OC)[C@@](C)(OC)OC1=O | 50 |
| CCCCCC#C/C=C\C#CC[C@@H]1O[C@](C)(OC)[C@@](C)(OC)OC1=O | 25 |
| CCCCCC/C=C\C#CC#CCCCCC(O)C(=O)OC (stereo not drawn) | 50 |
| CCCCC/C=C\C#CC#CCCCCC[C@@H]1O[C@](C)(OC)[C@@](C)(OC)OC1=O | 50 |
| CCCCCC#C/C=C\C#CCCCCCC(O)C(=O)O (stereo not drawn) | >75 |
| CCCC#C/C=C\C#CCCCCCC(O)C(=O)OCCCc1ccccc1 (stereo not drawn) | 25 |
| CCCCC#CC#C/C=C/CCCCCCC(O)C(=O)NCc1ccccc1 (stereo not drawn) | 25 |
| CCCCC#CC#C/C=C/CCCCCC[C@@H]1O[C@](C)(OC)[C@@](C)(OC)OC1=O | 25 |

test system: Staphylococcus aureus; test: Antibacterial activity against methicillin-resistant Staphylococcus aureus; assay type: functional; details: not given; note: test concentration or dose not given here

| Structure (SMILES) | inhibition (INH) [%] |
| --- | --- |
| O=C(O)C(O)CCCCCCC#C/C=C\C#Cc1ccco1 (stereo not drawn) | 25 |
| CCCC#CC#CC#CCCCCC[C@@H]1O[C@](C)(OC)[C@@](C)(OC)OC1=O | 25 |
| CCCCCC#C/C=C\C#CC[C@@H]1O[C@](C)(OC)[C@@](C)(OC)OC1=O | 25 |
| CCCCCC/C=C\C#CC#CCCCCC(O)C(=O)OC (stereo not drawn) | >75 |
| CCCCC/C=C\C#CC#CCCCCC[C@@H]1O[C@](C)(OC)[C@@](C)(OC)OC1=O | 25 |
| CCCC#C/C=C\C#CCCCCCC(O)C(=O)OCCCc1ccccc1 (stereo not drawn) | 25 |
| CCCCC#CC#C/C=C/CCCCCCC(O)C(=O)NCc1ccccc1 (stereo not drawn) | 50 |
| CCCCC#CC#C/C=C/CCCCCC[C@@H]1O[C@](C)(OC)[C@@](C)(OC)OC1=O | 25 |

test system: Candida parapsilosis; test: Antifungal activity against Candida parapsilosis; assay type: functional, organism-based; details: not given

| Structure (SMILES) | IC50 |
| --- | --- |
| CCCC#C/C=C\C#CCCCCCC(O)C(=O)O (stereo not drawn) | Not Active |
| CCCC#CC#CC#CCCCCC[C@@H]1O[C@](C)(OC)[C@@](C)(OC)OC1=O | Not Active |
| CCCCCC#C/C=C\C#CC[C@@H]1O[C@](C)(OC)[C@@](C)(OC)OC1=O | Not Active |
| CCCCC/C=C\C#CC#CCCCCC[C@@H]1O[C@](C)(OC)[C@@](C)(OC)OC1=O | Not Active |
| CCCCCC#C/C=C\C#CCCCCCC(O)C(=O)O (stereo not drawn) | Not Active |
| CCCC#C/C=C\C#CCCCCCC(O)C(=O)OCCCc1ccccc1 (stereo not drawn) | Not Active |
| CCCCC#CC#C/C=C/CCCCCCC(O)C(=O)NCc1ccccc1 (stereo not drawn) | Not Active |
| CCCCC#CC#C/C=C/CCCCCC[C@@H]1O[C@](C)(OC)[C@@](C)(OC)OC1=O | Not Active |

same assay, conditions: Lodderomyces parapsilosis; read-out: IC50

| Structure (SMILES) | IC50 [µM] |
| --- | --- |
| O=C(O)C(O)CCCCCCC#C/C=C\C#Cc1ccco1 (stereo not drawn) | 500 |
| CCCCCC/C=C\C#CC#CCCCCC(O)C(=O)OC (stereo not drawn) | 30 |

test system: Pichia kudriavzevii; test: Antifungal activity against Candida krusei; assay type: functional, organism-based; details: not given

| Structure (SMILES) | IC50 |
| --- | --- |
| CCCC#C/C=C\C#CCCCCCC(O)C(=O)O (stereo not drawn) | Not Active |
| O=C(O)C(O)CCCCCCC#C/C=C\C#Cc1ccco1 (stereo not drawn) | Not Active |
| CCCC#CC#CC#CCCCCC[C@@H]1O[C@](C)(OC)[C@@](C)(OC)OC1=O | Not Active |
| CCCCCC#C/C=C\C#CC[C@@H]1O[C@](C)(OC)[C@@](C)(OC)OC1=O | Not Active |
| CCCCCC/C=C\C#CC#CCCCCC(O)C(=O)OC (stereo not drawn) | Not Active |
| CCCCC/C=C\C#CC#CCCCCC[C@@H]1O[C@](C)(OC)[C@@](C)(OC)OC1=O | Not Active |
| CCCCCC#C/C=C\C#CCCCCCC(O)C(=O)O (stereo not drawn) | Not Active |
| CCCC#C/C=C\C#CCCCCCC(O)C(=O)OCCCc1ccccc1 (stereo not drawn) | Not Active |
| CCCCC#CC#C/C=C/CCCCCCC(O)C(=O)NCc1ccccc1 (stereo not drawn) | Not Active |
| CCCCC#CC#C/C=C/CCCCCC[C@@H]1O[C@](C)(OC)[C@@](C)(OC)OC1=O | Not Active |

test system: Streptococcus pyogenes; test: Antibacterial activity against Streptococcus pyogenes ATCC 19615; assay type: functional; details: not given; note: test concentration or dose not given here

| Structure (SMILES) | inhibition (INH) [%] |
| --- | --- |
| CCCC#C/C=C\C#CCCCCCC(O)C(=O)O (stereo not drawn) | >75 |
| O=C(O)C(O)CCCCCCC#C/C=C\C#Cc1ccco1 (stereo not drawn) | >75 |
| CCCC#CC#CC#CCCCCC[C@@H]1O[C@](C)(OC)[C@@](C)(OC)OC1=O | >75 |
| CCCCCC#C/C=C\C#CC[C@@H]1O[C@](C)(OC)[C@@](C)(OC)OC1=O | >75 |
| CCCCCC/C=C\C#CC#CCCCCC(O)C(=O)OC (stereo not drawn) | >75 |
| CCCCC/C=C\C#CC#CCCCCC[C@@H]1O[C@](C)(OC)[C@@](C)(OC)OC1=O | >75 |
| CCCCCC#C/C=C\C#CCCCCCC(O)C(=O)O (stereo not drawn) | >75 |
| CCCC#C/C=C\C#CCCCCCC(O)C(=O)OCCCc1ccccc1 (stereo not drawn) | >75 |
| CCCCC#CC#C/C=C/CCCCCCC(O)C(=O)NCc1ccccc1 (stereo not drawn) | >75 |
| CCCCC#CC#C/C=C/CCCCCC[C@@H]1O[C@](C)(OC)[C@@](C)(OC)OC1=O | >75 |

Source: ChEMBL document CHEMBL1208723, “Synthesis and activity of polyacetylene substituted 2-hydroxy acids, esters, and amides against microbes of clinical importance” (Bioorg Med Chem Lett, 2010)
